Active and inactive are the calls of the source.
Assays:
[1] = Luminescence-based counterscreen assay for KLF5 inhibitors: dose response cell-based high throughput screening assay to identify cytotoxic compounds using the IEC-6 intestinal epithelial cell line. [Related pubchem assays: 1700 (Primary screen.), 1834 (Confirmation screen.), 1858 (Summary AID.), 1905 (Counterscreen.)]; format: functional
[2] = A549 cell cytotoxicity, dose response, cytotoxicity control, plate reader, cherry-pick, antagonist series (AID 743412); format: functional, cell-based
[3] = toxicity toward HepG2 liver cells – cell-based, plate reader, cherry-pick, antagonist series, cytotoxicity control, dose response (AID 743416); format: functional
[4] = blockers of bursicon-stimulated LGR2 cAMP reporter – cell-based, HEK293, CRE-luciferase reporter, cherry pick, set 2, dose response (AID 743343); format: functional;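 note: transfected cells were stimulated with diluted bursicon conditioned medium after compound addition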
[5] = blockade of melanocortin 4 receptor signaling – cell-based, plate reader, cherry pick, counter-screen for LGR2 antagonist project, dose response (AID 743444); format: functional;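 note: transfected HEK 293 cells stimulated with alpha-MSH peptide; potency of inhibitors of the alpha-MSH evoked signal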
[6] = target: T1, Oxysterols receptor LXR-beta (Homo sapiens, UniProt P55055); format: functional, cell-based;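 note: Cell-based luminescence dose-response assay of agonist activity at LXR, run as a confirmatory counterscreen to a daf-12 agonist screen; HEK293 cells with Gal4-LXR fusion and GAL4-driven luciferase reporter; agonist potency from rising luciferase signal of a Gal4-LXR reporter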
T1 sequence (P55055 whole entry): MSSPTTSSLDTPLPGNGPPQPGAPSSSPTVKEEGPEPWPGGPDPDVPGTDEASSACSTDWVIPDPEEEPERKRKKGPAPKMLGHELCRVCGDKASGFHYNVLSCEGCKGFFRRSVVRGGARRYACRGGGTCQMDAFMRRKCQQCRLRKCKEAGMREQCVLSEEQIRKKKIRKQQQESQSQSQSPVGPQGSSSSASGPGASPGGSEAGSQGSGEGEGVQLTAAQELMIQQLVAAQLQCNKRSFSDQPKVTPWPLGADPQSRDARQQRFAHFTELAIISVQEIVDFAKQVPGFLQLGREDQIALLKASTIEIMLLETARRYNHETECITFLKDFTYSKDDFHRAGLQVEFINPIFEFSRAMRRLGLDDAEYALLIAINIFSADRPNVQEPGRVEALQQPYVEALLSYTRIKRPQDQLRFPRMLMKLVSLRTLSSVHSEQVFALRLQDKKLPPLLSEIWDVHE

[7] = cells
[8] = target: Neuropeptide Y receptor type 2 (Homo sapiens, UniProt P49146); assay: IC50 for human NPY-Y2 blockade – cell-based, counter-screen for NPY-Y1 antagonist project, dose response (AID 1278); format: functional
Sequence of Neuropeptide Y receptor type 2 (P49146 whole entry): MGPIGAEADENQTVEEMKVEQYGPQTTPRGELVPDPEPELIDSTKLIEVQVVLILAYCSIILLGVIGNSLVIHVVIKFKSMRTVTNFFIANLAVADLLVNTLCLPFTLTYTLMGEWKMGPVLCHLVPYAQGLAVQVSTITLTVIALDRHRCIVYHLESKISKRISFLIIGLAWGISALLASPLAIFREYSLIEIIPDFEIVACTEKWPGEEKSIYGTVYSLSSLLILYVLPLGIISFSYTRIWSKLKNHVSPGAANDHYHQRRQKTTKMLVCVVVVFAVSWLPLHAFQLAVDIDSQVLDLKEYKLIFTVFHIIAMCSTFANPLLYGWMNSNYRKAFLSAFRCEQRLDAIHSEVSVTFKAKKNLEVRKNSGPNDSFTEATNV

[9] = target: Neuropeptide Y receptor type 1 (Homo sapiens, UniProt P25929); assay: IC50 of human NPY-Y1 blockers – cell-based, dose response (AID 1277); format: functional
Sequence of Neuropeptide Y receptor type 1 (P25929 whole entry): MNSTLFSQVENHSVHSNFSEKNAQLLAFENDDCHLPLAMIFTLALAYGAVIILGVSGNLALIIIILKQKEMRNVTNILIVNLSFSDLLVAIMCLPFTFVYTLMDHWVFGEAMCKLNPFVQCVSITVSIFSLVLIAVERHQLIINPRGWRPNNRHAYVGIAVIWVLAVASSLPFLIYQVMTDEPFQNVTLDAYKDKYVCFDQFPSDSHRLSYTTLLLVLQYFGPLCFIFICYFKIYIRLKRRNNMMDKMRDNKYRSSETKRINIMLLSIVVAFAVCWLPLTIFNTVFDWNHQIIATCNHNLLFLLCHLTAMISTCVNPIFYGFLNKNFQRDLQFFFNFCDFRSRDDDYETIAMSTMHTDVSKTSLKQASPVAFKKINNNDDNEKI

[10] = viability of uninfected HEp-2 cells – cell-based, HTS, cytotoxicity control for RSV inhibitor project, dose response (AID 2410); format: functional; details: human respiratory syncytial virus
[11] = target: T2, Corticotropin-releasing factor receptor 2/Corticotropin-releasing factor-binding protein (Homo sapiens, UniProt P24387+Q13324); assay: Dose Response confirmation of uHTS hits for small molecule antagonists of the CRF-binding protein and CRF-R2 receptor complex.; format: functional; details: read-out: IC50_Mean
T2 sequence (Q13324 whole entry): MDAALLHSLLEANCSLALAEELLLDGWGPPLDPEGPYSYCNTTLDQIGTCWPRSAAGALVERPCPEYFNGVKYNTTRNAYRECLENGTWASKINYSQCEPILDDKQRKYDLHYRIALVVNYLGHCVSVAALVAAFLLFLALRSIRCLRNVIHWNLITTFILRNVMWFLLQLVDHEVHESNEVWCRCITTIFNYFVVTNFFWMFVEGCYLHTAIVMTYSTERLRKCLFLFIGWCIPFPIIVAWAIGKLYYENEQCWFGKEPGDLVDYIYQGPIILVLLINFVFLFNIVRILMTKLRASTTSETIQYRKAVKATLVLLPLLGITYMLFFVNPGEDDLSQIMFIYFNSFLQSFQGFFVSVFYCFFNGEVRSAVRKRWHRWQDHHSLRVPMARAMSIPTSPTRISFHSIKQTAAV
T2 sequence (P24387 whole entry): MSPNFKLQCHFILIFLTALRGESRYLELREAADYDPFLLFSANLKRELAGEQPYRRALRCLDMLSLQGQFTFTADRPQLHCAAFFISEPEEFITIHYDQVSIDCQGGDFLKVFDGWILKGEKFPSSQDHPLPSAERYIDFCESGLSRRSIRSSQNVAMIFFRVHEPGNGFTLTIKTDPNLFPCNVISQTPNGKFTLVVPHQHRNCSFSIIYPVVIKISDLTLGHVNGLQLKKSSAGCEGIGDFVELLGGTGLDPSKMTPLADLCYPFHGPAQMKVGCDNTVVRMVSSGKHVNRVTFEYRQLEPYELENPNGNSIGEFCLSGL

[12] = target: T2, Corticotropin-releasing factor receptor 2/Corticotropin-releasing factor-binding protein; assay: activators of CRF receptor 2 with binding protein – uHTS hits, confirmation (AID 602473); format: functional; details: read-out: EC50_Mean
[13] = blockers of CRF-binding protein–CRF-R2 complex – cell-based, uHTS hits, 384-well, dose response (AID 651639); format: functional, Homo sapiens; details: read-out: IC50_Mean
[14] = cells; remark: listed apart in the source

O=C(c1cc(-c2ccccc2Cl)on1)N1CCCC1
IC50 [1]: > 39.8 µM (not active) | AC50 [2]: > 52 µM (inactive) | AC50 [3]: > 52 µM (inactive) | AC50 [4]: 7.48 µM (active) | AC50 [5]: 12.1 µM (active) | EC50 [6]: > 67.5 µM (inactive) | EC50 [7]: > 67.5 µM (inactive)

COc1ccccc1N(CC(=O)NC1CCCC1)C(=O)c1oc(C(C)(C)C)cc1C
IC50 [8]: > 35 µM (not active) | IC50 [9]: 30.4 µM (not active)

O=C(O)c1ccc(-c2nc(-c3ccc(Cl)cc3Cl)cs2)cc1
CC50 [10]: > 50 µM (active) | IC50 [11]: 3.82 µM (active) | EC50 [12]: > 53 µM (inactive) | IC50 [13]: > 20 µM (inactive) | IC50 [14]: 44.2 µM (active)
